# Target: T1, p38 MAP kinase (Homo sapiens, UniProt Q16539)
# T1 construct: made in house; host or cells: E. coli
# Test: P38 MAP kinase binding assay (competition with fluorescent probe SKF 86002)
# Details: time-dependent if the IC50 values decrease with the reaction time (more than two-fold in four hours)
# Protocol: Thus, the ability of a small molecule to block fluoroprobe binding provides an experimental readout of binding to the switch control pocket. […] The reaction was initiated by addition of the enzyme. […] By comparison of rfu (relative fluorescence unit) values with that of a control (in the absence of small molecule modulators), the percentage of inhibition at each concentration of the small molecules were calculated. IC50 values for the small molecule modulators were calculated from the % inhibition values obtained at a range of concentrations of the small molecule modulators using Prism. When time-dependent inhibition was assessed, the plate was read at multiple reaction times such as 0.5, 1, 2, 3, 4 and 6 hours. The IC50 values were calculated at each time point. An inhibition was assigned as time-dependent if the IC50 values decrease with the reaction time (more than two-fold in four hours).
# T1 sequence (Q16539 whole entry): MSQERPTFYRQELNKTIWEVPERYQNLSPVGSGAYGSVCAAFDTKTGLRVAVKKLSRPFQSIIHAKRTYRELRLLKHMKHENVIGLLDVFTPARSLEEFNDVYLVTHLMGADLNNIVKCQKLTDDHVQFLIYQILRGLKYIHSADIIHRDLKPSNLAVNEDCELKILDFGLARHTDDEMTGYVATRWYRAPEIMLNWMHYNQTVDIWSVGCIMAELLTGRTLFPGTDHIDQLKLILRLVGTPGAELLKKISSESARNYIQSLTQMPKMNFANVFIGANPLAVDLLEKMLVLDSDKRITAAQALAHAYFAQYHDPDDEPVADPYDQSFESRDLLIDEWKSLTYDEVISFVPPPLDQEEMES
row,SMILES,Time-dependent
1,CC1(C(=O)O)CC2(C)CC(C)(C1)C(=O)N(Cc1cccc(-n3nc(C(C)(C)C)cc3NC(=O)Nc3cccc4ccccc34)c1)C2=O (stereo not shown) [Example 11],No
2,"CC(C)(C)c1cc(NC(=O)Nc2cccc3ccccc23)n(-c2cccc(CC(=O)N3CCOCC3)c2)n1 [Example 21, 1-{3-tert-butyl-1-[3-(2-morpholino-2-oxoethyl)phenyl]-1H-pyrazol-5-yl}-3-(naphthalene-1-yl)urea]",Yes
3,"CC(C)(C)c1cc(NC(=O)Nc2cccc3ccccc23)n(-c2ccc(CN)cc2)n1 [Example 45, 1-{3-tert-butyl-1-[4-(aminomethyl)phenyl]-1H-pyrazol-5-yl}-3-(naphthalen-1-yl)urea]",No
4,CC1(C(=O)O)CC2(C)CC(C)(C1)C(=O)N(Cc1cccc(-n3nc(C(C)(C)C)cc3NC(=O)Nc3ccc(Cl)cc3)c1)C2=O (stereo not shown) [Example 12],No
